Measurements from patent publication US9139529B2, “Substituted quinoxalines as sodium channel modulators” (VERTEX PHARMACEUTICALS INCORPORATED, priority 2013, dated 2015).
pIC50: −log10 of the molar value.

Molecular target: human Nav1.8 (Homo sapiens (Human), UniProt Q9Y5Y9)
Assay: E-VIPR optical membrane potential assay with electrical stimulation
Format: cell-based
Conditions: HEK cells expressing human Nav1.8
Source text: Assays for Detecting and Measuring NaV Inhibition Properties of Compounds E-VIPR Optical Membrane Potential Assay Method with Electrical Stimulation
Sodium channels are voltage-dependent proteins that can be activated by inducing membrane voltage changes by applying electric fields. The electrical stimulation instrument and methods of use are described in Ion Channel Assay Methods PCT/US01/21652, herein incorporated by reference and are referred to as E-VIPR. The instrument comprises a microtiter plate handler, an optical system for exciting the coumarin dye while simultaneously recording the coumarin and oxonol emissions, a waveform generator, a current- or voltage-controlled amplifier, and a device for inserting electrodes in well. Under integrated computer control, this instrument passes user-programmed electrical stimulus protocols to cells within the wells of the microtiter plate.
24 hours before the assay on E-VIPR, HEK cells expressing human Nav1.8 were seeded in 384-well poly-lysine coated plates at 15,000-20,000 cells per well. HEK cells were grown in media (exact composition is specific to each cell type and NaV subtype) supplemented with 10% FBS (Fetal Bovine Serum, qualified; GibcoBRL #16140-071) and 1% Pen-Strep (Penicillin-Streptomycin; GibcoBRL #15140-122). Cells were grown in vented cap flasks, in 90% humidity and 5% CO2.
1) Pre-spotted compounds (in neat DMSO) into compound plates. Vehicle control (neat DMSO), the positive control (20 mM DMSO stock tetracaine, 125 μM final in assay) and test compounds were added to each well at 160× desired final concentration in neat DMSO. Final compound plate volume was 80 μL (80-fold intermediate dilution from 1 μL DMSO spot; 160-fold final dilution after transfer to cell plate). Final DMSO concentration for all wells in assay was 0.625%.
2) Prepared Hexyl Dye Solution.
3) Prepared cell plates. On the day of the assay, medium was aspirated and cells were washed three times with 100 μL of Bath1 Solution, maintaining 25 μL residual volume in each well.
4) Dispensed 25 μL per well of Hexyl Dye Solution into cell plates. Incubated for 20-35 minutes at room temp or ambient conditions.
5) Dispensed 80 μL per well of Bath1 into compound plates. Acid Yellow-17 (1 mM) was added and Potassium Chloride was altered from 4.5 to 20 mM depending on the NaV subtype and assay sensitivity.
6) Washed cell plates three times with 100 μL per well of Bath1, leaving 25 μL of residual volume. Then transferred 25 uL per well from Compound Plates to Cell Plates. Incubated for 20-35 minutes at room temp/ambient condition.
7) Read Plate on E-VIPR. Used the current-controlled amplifier to deliver stimulation wave pulses for 10 seconds and a scan rate of 200 Hz. A pre-stimulus recording was performed for 0.5 seconds to obtain the un-stimulated intensities baseline. The stimulatory waveform was followed by 0.5 seconds of post-stimulation recording to examine the relaxation to the resting state.
Data was analyzed and reported as normalized ratios of emission intensities measured in the 460 nm and 580 nm channels. The response as a function of time was reported as the ratios obtained using the following formula: […]
The data was further reduced by calculating the initial (Ri) and final (Rf) ratios. These were the average ratio values during part or all of the pre-stimulation period, and during sample points during the stimulation period. The response to the stimulus R=Rf/Ri was then calculated and reported as a function of time.
Control responses were obtained by performing assays in the presence of a compound with the desired properties (positive control), such as tetracaine, and in the absence of pharmacological agents (negative control). Responses to the negative (N) and positive (P) controls were calculated as above. The compound antagonist activity A is defined as:
[formula] where R is the ratio response of the test compound

Chain of human Nav1.8 (Q9Y5Y9 whole entry): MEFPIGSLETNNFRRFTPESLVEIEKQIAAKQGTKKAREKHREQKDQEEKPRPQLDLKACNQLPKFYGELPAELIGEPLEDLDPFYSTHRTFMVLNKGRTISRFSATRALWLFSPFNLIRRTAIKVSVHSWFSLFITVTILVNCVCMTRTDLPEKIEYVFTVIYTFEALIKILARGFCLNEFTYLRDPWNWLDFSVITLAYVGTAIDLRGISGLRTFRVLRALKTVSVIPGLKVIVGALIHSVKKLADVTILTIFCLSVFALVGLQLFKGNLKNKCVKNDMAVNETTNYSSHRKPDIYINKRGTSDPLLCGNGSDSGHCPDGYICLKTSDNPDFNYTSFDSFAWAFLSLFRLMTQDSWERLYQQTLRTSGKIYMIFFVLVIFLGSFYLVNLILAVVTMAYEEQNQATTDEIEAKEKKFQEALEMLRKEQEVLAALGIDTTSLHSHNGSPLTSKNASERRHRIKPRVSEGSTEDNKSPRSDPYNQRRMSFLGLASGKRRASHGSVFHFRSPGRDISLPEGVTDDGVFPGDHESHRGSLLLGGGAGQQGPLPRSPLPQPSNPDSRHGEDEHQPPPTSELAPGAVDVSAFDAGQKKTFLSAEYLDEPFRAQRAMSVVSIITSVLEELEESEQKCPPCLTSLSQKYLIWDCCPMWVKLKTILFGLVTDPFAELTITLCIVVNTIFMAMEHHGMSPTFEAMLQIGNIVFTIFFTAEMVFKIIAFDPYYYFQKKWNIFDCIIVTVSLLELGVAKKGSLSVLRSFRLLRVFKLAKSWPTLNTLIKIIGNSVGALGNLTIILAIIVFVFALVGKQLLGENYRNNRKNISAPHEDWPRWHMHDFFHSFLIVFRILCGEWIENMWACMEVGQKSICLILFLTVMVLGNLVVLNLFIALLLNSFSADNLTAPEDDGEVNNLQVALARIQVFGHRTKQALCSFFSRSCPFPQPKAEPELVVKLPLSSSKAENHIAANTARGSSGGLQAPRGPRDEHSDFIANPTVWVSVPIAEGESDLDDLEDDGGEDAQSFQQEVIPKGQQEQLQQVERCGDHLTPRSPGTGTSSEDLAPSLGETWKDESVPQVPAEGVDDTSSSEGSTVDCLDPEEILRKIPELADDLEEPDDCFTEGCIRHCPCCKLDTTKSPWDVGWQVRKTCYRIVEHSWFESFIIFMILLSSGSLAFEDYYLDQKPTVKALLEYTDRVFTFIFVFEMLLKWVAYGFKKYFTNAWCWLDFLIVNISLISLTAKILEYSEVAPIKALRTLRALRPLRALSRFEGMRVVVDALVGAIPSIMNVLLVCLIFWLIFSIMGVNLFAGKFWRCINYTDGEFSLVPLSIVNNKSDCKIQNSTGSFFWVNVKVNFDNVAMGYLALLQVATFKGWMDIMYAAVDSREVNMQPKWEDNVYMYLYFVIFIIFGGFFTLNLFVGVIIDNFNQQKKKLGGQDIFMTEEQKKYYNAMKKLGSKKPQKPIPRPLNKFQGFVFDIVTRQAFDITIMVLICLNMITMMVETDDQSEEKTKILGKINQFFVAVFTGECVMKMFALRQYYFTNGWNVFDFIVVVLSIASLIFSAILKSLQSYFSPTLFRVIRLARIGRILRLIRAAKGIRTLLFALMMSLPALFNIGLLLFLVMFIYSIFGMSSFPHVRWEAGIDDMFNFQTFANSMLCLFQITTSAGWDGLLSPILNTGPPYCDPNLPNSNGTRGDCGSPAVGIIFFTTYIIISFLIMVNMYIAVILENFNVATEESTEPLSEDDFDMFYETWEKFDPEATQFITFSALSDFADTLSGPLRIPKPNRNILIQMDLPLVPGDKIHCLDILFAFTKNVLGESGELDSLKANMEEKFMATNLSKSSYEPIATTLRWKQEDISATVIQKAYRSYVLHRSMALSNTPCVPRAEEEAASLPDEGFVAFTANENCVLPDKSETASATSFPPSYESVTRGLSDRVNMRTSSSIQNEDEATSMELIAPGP

pIC50 | Compound
6.37 | COc1cc(F)ccc1Oc1nc2ccccc2nc1C(=O)Nc1ccc2[nH]c(CO)nc2c1 [Compound 44, 3-(4-fluoro-2-methoxyphenoxy)-N-(2-(hydroxymethyl)-1H-benzo[d]imidazol-5-yl)quinoxaline-2-carboxamide]
8.15 | Cc1cc(F)ccc1Oc1nc2ccccc2nc1C(=O)Nc1cccc(S(N)(=O)=O)c1 [Compound 14, 3-(4-fluoro-2-methylphenoxy)-N-(3-sulfamoylphenyl)quinoxaline-2-carboxamide]
7.72 | COc1cc(Cl)ccc1Oc1nc2ccccc2nc1C(=O)Nc1ccc(C(=O)O)nc1 [Compound 23, 5-(3-(4-chloro-2-methoxyphenoxy)quinoxaline-2-carboxamido)picolinic acid]
5.90 | COc1cc(F)ccc1Oc1nc2ccccc2nc1C(=O)Nc1cc(C#N)ccn1 [Compound 50, N-(4-cyanopyridin-2-yl)-3-(4-fluoro-2-methoxyphenoxy)quinoxaline-2-carboxamide]
7.72 | COc1cc(F)ccc1Oc1nc2ccccc2nc1C(=O)Nc1ccc2[nH]c(=O)[nH]c2c1 [Compound 57, 3-(4-fluoro-2-methoxyphenoxy)-N-(2-oxo-2,3-dihydro-1H-benzo[d]imidazol-5-yl)quinoxaline-2-carboxamide]
7.16 | COc1ccc(Oc2nc3ccccc3nc2C(=O)Nc2ccc(C(=O)O)nc2)c(Cl)c1 [Compound 30, 5-(3-(2-chloro-4-methoxyphenoxy)quinoxaline-2-carboxamido)picolinic acid]
5.62 | COc1cc(F)ccc1Oc1nc2ccccc2nc1C(=O)Nc1ccc(C#N)cn1 [Compound 52, N-(5-cyanopyridin-2-yl)-3-(4-fluoro-2-methoxyphenoxy)quinoxaline-2-carboxamide]
7.13 | O=C(Nc1cc[nH]c(=O)c1)c1nc2ccccc2nc1Oc1ccc(F)cc1 [Compound 35, 3-(4-fluorophenoxy)-N-(2-oxo-1,2-dihydropyridin-4-yl)quinoxaline-2-carboxamide]
7.66 | COc1cc(F)ccc1Oc1nc2ccccc2nc1C(=O)Nc1ccncc1 [Compound 53, 3-(4-fluoro-2-methoxyphenoxy)-N-(pyridin-4-yl)quinoxaline-2-carboxamide]
7.51 | COc1cc(Cl)ccc1Oc1nc2ccccc2cc1C(=O)Nc1cccc(S(N)(=O)=O)c1 [Compound 73, 2-(4-chloro-2-methoxyphenoxy)-N-(3-sulfamoylphenyl)quinoline-3-carboxamide]
7.51 | COc1cc(F)ccc1Oc1nc2ccccc2nc1C(=O)Nc1ccc(C(N)=O)cc1 [Compound 58, N-(4-carbamoylphenyl)-3-(4-fluoro-2-methoxyphenoxy)quinoxaline-2-carboxamide]
7.43 | COc1cc(F)ccc1Oc1nc2ccccc2nc1C(=O)Nc1ccc(C#N)nc1 [Compound 51, N-(6-cyanopyridin-3-yl)-3-(4-fluoro-2-methoxyphenoxy)quinoxaline-2-carboxamide]
7.34 | COc1cc(F)ccc1Oc1nc2ccccc2nc1C(=O)Nc1ccc(C#N)cc1 [Compound 55, N-(4-cyanophenyl)-3-(4-fluoro-2-methoxyphenoxy)quinoxaline-2-carboxamide]
5.78 | COc1cc(F)ccc1Oc1nc2ccccc2nc1C(=O)Nc1cccc(-c2nnn[nH]2)c1 [Compound 45, N-(3-(1H-tetrazol-5-yl)phenyl)-3-(4-fluoro-2-methoxyphenoxy)quinoxaline-2-carboxamide]
5.77 | COc1cc(F)ccc1Oc1nc2ccccc2nc1C(=O)Nc1cc[nH]n1 [Compound 40, 3-(4-fluoro-2-methoxyphenoxy)-N-(1H-pyrazol-3-yl)quinoxaline-2-carboxamide]
8.52 | NS(=O)(=O)c1cccc(NC(=O)c2nc3ccccc3nc2Oc2ccc(F)cc2Cl)c1 [Compound 6, 3-(2-chloro-4-fluorophenoxy)-N-(3-sulfamoylphenyl)quinoxaline-2-carboxamide]

pIC50 | Compound
6.47 | O=C(O)c1ccc(NC(=O)c2nc3ccccc3nc2Oc2ccccc2OC(F)F)cn1 [Compound 24, 5-(3-(2-(difluoromethoxy)phenoxy)quinoxaline-2-carboxamido)picolinic acid]
7.10 | COc1cc(F)ccc1Oc1nc2ccccc2nc1C(=O)Nc1cccnc1 [Compound 54, 3-(4-fluoro-2-methoxyphenoxy)-N-(pyridin-3-yl)quinoxaline-2-carboxamide]
7.85 | NS(=O)(=O)c1cccc(NC(=O)c2nc3ccccc3nc2Oc2ccc(OC(F)(F)F)cc2)c1 [Compound 3, N-(3-sulfamoylphenyl)-3-(4-(trifluoromethoxy)phenoxy)quinoxaline-2-carboxamide]
7.96 | NS(=O)(=O)c1cccc(NC(=O)c2cc3ccccc3nc2Oc2ccc(F)cc2F)c1 [Compound 65, 2-(2,4-difluorophenoxy)-N-(3-sulfamoylphenyl)quinoline-3-carboxamide]
7.18 | NS(=O)(=O)c1cccc(NC(=O)c2nc3ccccc3nc2Oc2ccc(OCC(F)(F)F)cc2)c1 [Compound 15, N-(3-sulfamoylphenyl)-3-(4-(2,2,2-trifluoroethoxy)phenoxy)quinoxaline-2-carboxamide]
7.29 | O=C(O)c1ccc(NC(=O)c2nc3ccccc3nc2Oc2ccc(F)cc2Cl)cn1 [Compound 28, 5-(3-(2-chloro-4-fluorophenoxy)quinoxaline-2-carboxamido)picolinic acid]
6.35 | COc1cc(F)ccc1Oc1nc2ccccc2nc1C(=O)Nc1nc(C(=O)O)cs1 [Compound 37, 2-(3-(4-Fluoro-2-methoxyphenoxy)quinoxaline-2-carboxamido)thiazole-4-carboxylic acid]
7.47 | COc1ccc(Oc2nc3ccccc3cc2C(=O)Nc2cccc(S(N)(=O)=O)c2)c(F)c1 [Compound 70, 2-(2-fluoro-4-methoxyphenoxy)-N-(3-sulfamoylphenyl)quinoline-3-carboxamide]
7.66 | COc1ccc(Oc2nc3ccccc3nc2C(=O)Nc2cccc(S(N)(=O)=O)c2)c(F)c1 [Compound 12, 3-(2-fluoro-4-methoxyphenoxy)-N-(3-sulfamoylphenyl)quinoxaline-2-carboxamide]
7.89 | NS(=O)(=O)c1cccc(NC(=O)c2nc3ccccc3nc2Oc2ccc(F)cc2F)c1 [Compound 5, 3-(2,4-difluorophenoxy)-N-(3-sulfamoylphenyl)quinoxaline-2-carboxamide]
7.44 | NS(=O)(=O)c1cccc(NC(=O)c2nc3ccccc3nc2Oc2ccccc2OC(F)F)c1 [Compound 10, 3-(2-(difluoromethoxy)phenoxy)-N-(3-sulfamoylphenyl)quinoxaline-2-carboxamide]
5.97 | O=C(O)c1ccc(NC(=O)c2nc3ccccc3nc2Oc2ccccc2)cn1 [Compound 20, 5-(3-phenoxyquinoxaline-2-carboxamido)picolinic acid]
7.80 | COc1cc(F)ccc1Oc1nc2ccccc2nc1C(=O)Nc1ccnc(C(=O)O)c1 [Compound 34, 4-(3-(4-fluoro-2-methoxyphenoxy)quinoxaline-2-carboxamido)picolinic acid]
7.66 | CNS(=O)(=O)c1cccc(NC(=O)c2nc3ccccc3nc2Oc2ccc(F)cc2OC)c1 [Compound 16, 3-(4-fluoro-2-methoxyphenoxy)-N-(3-(N-methylsulfamoyl)phenyl)quinoxaline-2-carboxamide]
6.74 | COc1cc(F)ccc1Oc1nc2ccccc2nc1C(=O)Nc1cccc(C(N)=O)c1 [Compound 59, N-(3-carbamoylphenyl)-3-(4-fluoro-2-methoxyphenoxy)quinoxaline-2-carboxamide]
8.10 | Cc1cc(F)ccc1Oc1nc2ccccc2cc1C(=O)Nc1cccc(S(N)(=O)=O)c1 [Compound 63, 2-(4-fluoro-2-methylphenoxy)-N-(3-sulfamoylphenyl)quinoline-3-carboxamide]
